Reference: PubChem BioAssay AID488931 (Broad Institute, 2010)
Active and inactive are the calls of the source.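 How the source made its calls: active means rising protection curve whose AC50 sits at or below ten times the top dose tested for that sample; inconclusive means flat response between 30 and 70 percent, or poor fit; inactive means the rest.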

What was measured:
[1] = INS-1E mitochondrial potential rescue under cytokines – cell-based, JC-1 fluorescence ratio, dry powder, dose response (AID 488931); conditions: INS-1E cytokine-induced mitochondrial depolarization, JC-1 ratio, 48 h; at 19.5 µM (top of the series)
[2] = tested on: INS-1E cytokine-induced mitochondrial depolarization, JC-1 ratio, 48 h; test: as above

In the case of COc1ccc(S(=O)(=O)N(C)C[C@@H]2Oc3c(NC(=O)NC4CCCCC4)cccc3C(=O)N([C@@H](C)CO)C[C@H]2C)cc1, the protection from depolarization [1] is reported as 16.4% (inactive).
For COc1ccc(S(=O)(=O)N(C)C[C@@H]2Oc3c(NC(=O)Nc4ccc(F)cc4)cccc3C(=O)N([C@H](C)CO)C[C@H]2C)cc1, the protection from depolarization [1] was 10.6% (inactive).
In the case of COc1ccc(S(=O)(=O)N(C)C[C@@H]2Oc3c(NC(=O)Nc4cccc5ccccc45)cccc3C(=O)N([C@@H](C)CO)C[C@H]2C)cc1, the protection from depolarization [1] is reported as 10.7% (inactive).
In the case of COc1ccc(S(=O)(=O)N(C)C[C@@H]2Oc3c(NC(=O)C4CCOCC4)cccc3C(=O)N([C@@H](C)CO)C[C@H]2C)cc1, the protection from depolarization [1] is reported as 0.344% (inactive).
For COc1ccc(S(=O)(=O)N(C)C[C@@H]2Oc3c(NC(=O)c4cnccn4)cccc3C(=O)N([C@@H](C)CO)C[C@H]2C)cc1, the protection from depolarization [1] was -0.183% (inactive).
For COc1ccc(S(=O)(=O)N(C)C[C@H]2Oc3c(NC(=O)Nc4cccc5ccccc45)cccc3C(=O)N([C@H](C)CO)C[C@H]2C)cc1, the protection from depolarization [1] was 7.31% (inactive).
For C[C@@H]1CN([C@@H](C)CO)C(=O)c2cccc(NC(=O)Nc3cccc4ccccc34)c2O[C@H]1CN(C)S(=O)(=O)c1ccc2c(c1)OCCO2, the protection from depolarization [1] was 19.2% (inactive).
With COc1ccc(S(=O)(=O)N(C)C[C@@H]2Oc3c(NS(=O)(=O)c4ccccc4)cccc3C(=O)N([C@@H](C)CO)C[C@H]2C)cc1 the protection from depolarization [1] was 7.15% (inactive).
In the case of COc1ccc(S(=O)(=O)N(C)C[C@@H]2Oc3c(NS(=O)(=O)c4ccc(Cl)cc4)cccc3C(=O)N([C@@H](C)CO)C[C@H]2C)cc1, the protection from depolarization [1] is reported as 3.44% (inactive).
With C[C@@H]1CN([C@@H](C)CO)C(=O)c2cccc(NC(=O)Nc3cccc4ccccc34)c2O[C@H]1CN(C)C(=O)NC1CCCCC1 the protection from depolarization [1] was -5.64% (inactive).
For C[C@@H]1CN([C@@H](C)CO)C(=O)c2cccc(NC(=O)Nc3cccc4ccccc34)c2O[C@H]1CN(C)C(=O)Nc1ccc2c(c1)OCO2, the protection from depolarization [1] was 0.627% (inactive).
For COc1ccc(S(=O)(=O)N(C)C[C@@H]2Oc3c(NC(=O)c4ccc(-c5nccs5)cc4)cccc3C(=O)N([C@@H](C)CO)C[C@H]2C)cc1, the protection from depolarization [1] was 3.72% (inactive).
With COc1ccc(S(=O)(=O)N(C)C[C@@H]2Oc3c(NS(C)(=O)=O)cccc3C(=O)N([C@@H](C)CO)C[C@H]2C)cc1 the protection from depolarization [1] was -3.87% (inactive).
For C[C@@H]1CN([C@@H](C)CO)C(=O)c2cccc(NC(=O)Nc3cccc4ccccc34)c2O[C@H]1CN(C)S(=O)(=O)c1cccs1, the protection from depolarization [1] was -8.53% (inactive).
In the case of C[C@@H]1CN([C@@H](C)CO)C(=O)c2cccc(NC(=O)Nc3cccc4ccccc34)c2O[C@H]1CN(C)S(=O)(=O)c1ccc(F)cc1, the protection from depolarization [1] is reported as 6.22% (inactive).
With COc1ccc(S(=O)(=O)N(C)C[C@@H]2Oc3c(NC(=O)c4cc(C)nn4C)cccc3C(=O)N([C@@H](C)CO)C[C@H]2C)cc1 the protection from depolarization [1] was -6.67% (inactive).
With C[C@@H]1CN([C@H](C)CO)C(=O)c2cccc(NC(=O)Nc3cccc4ccccc34)c2O[C@H]1CN(C)S(=O)(=O)c1ccc(Cl)cc1 the protection from depolarization [1] was 20.7% (inactive).
With C[C@H]1CN([C@@H](C)CO)C(=O)c2cccc(NC(=O)NC3CCCCC3)c2O[C@@H]1CN(C)S(C)(=O)=O the protection from depolarization [1] was 4.62% (inactive).
In the case of C[C@@H]1CN([C@@H](C)CO)C(=O)c2cccc(NC(=O)Nc3ccccc3)c2O[C@H]1CN(C)S(=O)(=O)c1ccc(F)cc1, the protection from depolarization [1] is reported as 11.5% (inactive).
For C[C@@H]1CN([C@@H](C)CO)C(=O)c2cccc(NC(=O)Nc3cccc4ccccc34)c2O[C@H]1CN(C)S(=O)(=O)c1cccc(F)c1, the protection from depolarization [1] was -3.75% (inactive).
For COc1ccc(S(=O)(=O)N(C)C[C@@H]2Oc3ccc(NC(=O)Nc4cccc5ccccc45)cc3C(=O)N([C@@H](C)CO)C[C@H]2C)cc1, the protection from depolarization [1] was -7.17% (inactive).
In the case of Cc1ccc(S(=O)(=O)N(C)C[C@H]2Oc3c(NC(=O)Nc4cccc5ccccc45)cccc3C(=O)N([C@@H](C)CO)C[C@@H]2C)cc1, the protection from depolarization [1] is reported as -8.26% (inactive).
With C[C@@H]1CN([C@@H](C)CO)C(=O)c2cccc(NC(=O)Nc3cccc4ccccc34)c2O[C@H]1CN(C)S(=O)(=O)c1ccc2c(c1)oc(=O)n2C the protection from depolarization [1] was 23.7% (inactive).
With C[C@@H]1CN([C@@H](C)CO)C(=O)c2cccc(NC(=O)Nc3cccc4ccccc34)c2O[C@H]1CN(C)S(=O)(=O)c1ccc2c(c1)OCO2 the protection from depolarization [1] was 14.5% (inactive).
With COc1ccc(S(=O)(=O)N(C)C[C@@H]2Oc3c(NC(=O)Nc4ccccc4)cccc3C(=O)N([C@H](C)CO)C[C@H]2C)cc1 the AC50 [2] was > 19.5 µM (inactive).
With C[C@@H]1CN([C@@H](C)CO)C(=O)c2cccc(NC(=O)Nc3cccc4ccccc34)c2O[C@H]1CN(C)S(=O)(=O)c1ccccc1F the protection from depolarization [1] was -1.29% (inactive).
With COc1ccc(NC(=O)N(C)C[C@@H]2Oc3c(NC(=O)Nc4cccc5ccccc45)cccc3C(=O)N([C@@H](C)CO)C[C@H]2C)cc1 the protection from depolarization [1] was -6.82% (inactive).
With COc1ccc(S(=O)(=O)N(C)C[C@@H]2Oc3c(NC(=O)C4CC4)cccc3C(=O)N([C@@H](C)CO)C[C@H]2C)cc1 the protection from depolarization [1] was 0.699% (inactive).
In the case of C[C@@H]1CN([C@H](C)CO)C(=O)c2cccc(NC(=O)Nc3ccccc3)c2O[C@H]1CN(C)S(=O)(=O)c1ccc(Cl)cc1, the protection from depolarization [1] is reported as 27.7% (inactive).
In the case of COc1ccc(S(=O)(=O)N(C)C[C@@H]2Oc3c(NC(=O)c4nc5ccccc5s4)cccc3C(=O)N([C@@H](C)CO)C[C@H]2C)cc1, the protection from depolarization [1] is reported as -8.98% (inactive).
In the case of C[C@@H]1CN([C@@H](C)CO)C(=O)c2cccc(NS(=O)(=O)c3ccccc3)c2O[C@H]1CN(C)Cc1ccc(C(F)(F)F)cc1, the protection from depolarization [1] is reported as -0.0726% (inactive).
For COc1ccc(S(=O)(=O)N(C)C[C@@H]2Oc3c(NC(=O)Nc4ccc(C(F)(F)F)cc4)cccc3C(=O)N([C@@H](C)CO)C[C@H]2C)cc1, the protection from depolarization [1] was 12.6% (inactive).
With COc1ccc(NC(=O)Nc2cccc3c2O[C@@H](CN(C)S(=O)(=O)c2ccc(OC)cc2)[C@H](C)CN([C@@H](C)CO)C3=O)cc1 the protection from depolarization [1] was -0.254% (inactive).
With C[C@@H]1CN([C@@H](C)CO)C(=O)c2cccc(NC(=O)Nc3cccc4ccccc34)c2O[C@H]1CN(C)C(=O)Nc1ccccc1 the protection from depolarization [1] was -8.43% (inactive).
For COc1ccc(S(=O)(=O)N(C)C[C@@H]2Oc3c(NC(=O)Nc4cccc5ccccc45)cccc3C(=O)N([C@H](C)CO)C[C@@H]2C)cc1, the protection from depolarization [1] was 2.53% (inactive).
For C[C@@H]1CN([C@@H](C)CO)C(=O)c2cccc(NC(=O)Nc3cccc4ccccc34)c2O[C@H]1CN(C)S(=O)(=O)c1ccccc1, the protection from depolarization [1] was 12.8% (inactive).
With COc1ccc(S(=O)(=O)N(C)C[C@@H]2Oc3c(NS(=O)(=O)c4ccc(C)cc4)cccc3C(=O)N([C@@H](C)CO)C[C@H]2C)cc1 the protection from depolarization [1] was 2.95% (inactive).
For C[C@@H]1CN([C@@H](C)CO)C(=O)c2cccc(NC(=O)Nc3ccccc3)c2O[C@H]1CN(C)S(=O)(=O)c1ccc(Cl)cc1, the protection from depolarization [1] was 18.7% (inactive).
For C[C@@H]1CN([C@H](C)CO)C(=O)c2cccc(NC(=O)Nc3ccccc3)c2O[C@H]1CN(C)S(=O)(=O)c1ccc(F)cc1, the protection from depolarization [1] was 3.73% (inactive).
In the case of C[C@@H]1CN([C@@H](C)CO)C(=O)c2cccc(NC(=O)Nc3cccc4ccccc34)c2O[C@H]1CN(C)S(=O)(=O)c1cn(C)cn1, the protection from depolarization [1] is reported as -9.26% (inactive).
With C[C@@H]1CN([C@@H](C)CO)C(=O)c2cccc(NC(=O)Nc3cccc4ccccc34)c2O[C@H]1CN(C)S(=O)(=O)c1ccc2c(c1)OCCCO2 the protection from depolarization [1] was 5.1% (inactive).
In the case of C[C@@H]1CN([C@@H](C)CO)C(=O)c2cccc(NC(=O)Nc3cccc4ccccc34)c2O[C@H]1CN(C)CC1CC1, the protection from depolarization [1] is reported as 9.67% (inactive).
With COc1ccc(S(=O)(=O)N(C)C[C@@H]2Oc3c(NC(=O)c4cccc5ccccc45)cccc3C(=O)N([C@@H](C)CO)C[C@H]2C)cc1 the protection from depolarization [1] was 5.96% (inactive).
For C[C@@H]1CN([C@@H](C)CO)C(=O)c2cccc(NC(=O)Nc3cccc4ccccc34)c2O[C@H]1CN(C)S(=O)(=O)c1ccc(OC(F)(F)F)cc1, the protection from depolarization [1] was -17.1% (inactive).
In the case of Cc1noc(C)c1NC(=O)N(C)C[C@@H]1Oc2c(NC(=O)Nc3cccc4ccccc34)cccc2C(=O)N([C@@H](C)CO)C[C@H]1C, the protection from depolarization [1] is reported as 10.5% (inactive).
With COc1ccc(S(=O)(=O)N(C)C[C@@H]2Oc3c(cccc3N(C)C)C(=O)N([C@@H](C)CO)C[C@H]2C)cc1 the protection from depolarization [1] was -3.81% (inactive).
In the case of COc1ccccc1S(=O)(=O)N(C)C[C@@H]1Oc2c(NC(=O)Nc3cccc4ccccc34)cccc2C(=O)N([C@@H](C)CO)C[C@H]1C, the protection from depolarization [1] is reported as 4.59% (inactive).
With CNC[C@@H]1Oc2c(NC(=O)Nc3cccc4ccccc34)cccc2C(=O)N([C@@H](C)CO)C[C@H]1C the protection from depolarization [1] was 4.81% (inactive).
In the case of COc1ccc(S(=O)(=O)N(C)C[C@@H]2Oc3c(NS(=O)(=O)c4ccc(F)cc4)cccc3C(=O)N([C@@H](C)CO)C[C@H]2C)cc1, the protection from depolarization [1] is reported as 2.07% (inactive).
In the case of Cc1ccc(S(=O)(=O)N(C)C[C@@H]2Oc3c(NC(=O)Nc4cccc5ccccc45)cccc3C(=O)N([C@@H](C)CO)C[C@H]2C)cc1, the protection from depolarization [1] is reported as 13.7% (inactive).
With COc1ccc(S(=O)(=O)N(C)C[C@@H]2Oc3c(NS(=O)(=O)c4cn(C)cn4)cccc3C(=O)N([C@@H](C)CO)C[C@H]2C)cc1 the protection from depolarization [1] was 1.64% (inactive).
With COc1ccc(S(=O)(=O)N(C)C[C@@H]2Oc3c(NC(=O)Nc4cccc5ccccc45)cccc3C(=O)N([C@@H](C)CO)C[C@H]2C)c(OC)c1 the protection from depolarization [1] was 9.11% (inactive).
In the case of Cc1ccc(S(=O)(=O)N(C)C[C@@H]2Oc3c(NC(=O)Nc4ccc(F)cc4)cccc3C(=O)N([C@H](C)CO)C[C@H]2C)cc1, the protection from depolarization [1] is reported as 15.8% (inactive).
With C[C@@H]1CN([C@@H](C)CO)C(=O)c2cccc(NC(=O)Nc3cccc4ccccc34)c2O[C@H]1CN(C)C(=O)Nc1ccc(F)cc1 the protection from depolarization [1] was -0.192% (inactive).
For C[C@@H]1CN([C@@H](C)CO)C(=O)c2cccc(NC(=O)Nc3cccc4ccccc34)c2O[C@H]1CN(C)C(=O)Nc1ccc(C(F)(F)F)cc1, the protection from depolarization [1] was -10.5% (inactive).
In the case of COc1ccc(S(=O)(=O)N(C)C[C@@H]2Oc3c(NC(=O)Nc4ccc(F)cc4)cccc3C(=O)N([C@@H](C)CO)C[C@H]2C)cc1, the protection from depolarization [1] is reported as 23.9% (inactive).
